Reference: US6080753A, “Stimulating nerve growth with immunophilins” (Johns Hopkins University School of Medicine, priority 1997, dated 2000)
Entries after “also recorded” stand apart in the source; their conditions may differ.

Assays:
PC-12 cells = experiment: Neurite outgrowth in PC-12 cells; type: cell-based
Description: PC-12 cells were maintained at 37° C., 5% CO2, in Dulbecco's modified Eagle medium (DMEM) supplemented with 10% heat-inactivated horse serum and 5% heat-inactivated fetal bovine serum. For differentiation in NGF, cells were plated at 1×10^5 in 35 mm culture wells coated with rat tail collagen at 5 μg/cm^2, and allowed to attach before replacing the media with DBMEM supplemented with 2% fetal horse serum, 1% fetal calf serum, NGF and/or FK506 or rapamycin. For quantitation of neurite outgrowth, random photographs were made (3-4 per well), and process bearing neurons were counted with processes being greater than 5 μm. Experimental conditions were unknown by the photographer and cell counter. Four separate experiments were performed in duplicate for each data point presented. Neurites were identified and counted from approximately 100 cells per photograph. Thus, neurites from 1200-1600 cells were counted per data point.

dorsal root ganglia = experiment: Neurite/axon outgrowth in dorsal root ganglia explant cultures; type: cell-based, rat; details: for time at which growth begins to plateau / time by which some outgrowth is evident: all concentrations
Description: Stage E16 embryos were removed from pregnant Sprague-Dawley rats and the dorsal root ganglia dissected. Whole ganglia explants were cultured in collagencoated 35 mm dishes (Falcon) using N2 medium (Dulbecco's Modified Eagle medium and Ham's F12 medium mixed 1:1 and supplemented with progesterone, selenium, insulin, putrescine, glucose, and penicillin-streptomycin) at 37° C. in a 15% CO2 environment. Sensory ganglia were treated with various concentrations of NGF and/or FK506 or rapamycin or anti-NGF antibody. Ganglia were observed every 2-3 days under phase-contrasting using an Olympus IMT-2 inverted microscope, and measurements of axon length were made. The axonal field of each ganglion was divided into four quadrants, and the length of the longest axons in each quadrant was measured in microns using an eye-piece micrometer. The average of these measurements was taken as the axon length for the ganglion.

FKBP [1] = molecular target: T1, FKBP (Rattus norvegicus, UniProt Q62658); experiment: [3H]FK506 binding in rat tissues (Table 1A); parameters: from tissue; host or cells: rat sciatic nerve, cerebral cortex, thymus, spleen; neonatal rat forebrain and growth cones
Text: If FKBP were physiologically associated with neuronal process extension in the actions of GAP-43, then one might anticipate substantial levels of FKBP in peripheral nerve. Accordingly, we measured [^3 H]FK-506 binding in rat sciatic nerve, as well as in growth cones isolated from 2-day-old rat pups, and compared values with those of the cerebral cortex and several peripheral tissues.
For axon transport experiments, classic ligature techniques were used following the methods of Tetzlaff et al. One week following sciatic nerve crush two collection ligatures (510 sutures) were placed on the nerve approximately 10 mm apart with the distal most ligature positioned 10 mm proximal to the initial crush sight. Six hours later, 5-3 mm segments of the nerve were collected from regions proximal to, distal to, and between the collection ligatures as illustrated in FIG. 5. The nerve segments were prepared for [^3 H]FK-506 binding assays by homogenizing in 10 volumes of 50 mM Tris-HCl, pH 7.4. Homogenates were centrifuged at 15,000×g for 20 min at 4° C., and supernatants were collected and assayed for total protein concentration using the Coomassie blue dye binding assay (Pearce). [^3 H]FK-506 binding was carried out as described (4) on aliquots containing 2 ug of total soluble protein in a final volume of 0.4 ml assay buffer consisting of 50 mM Tris-HCl, pH 7.4, 2 mg/ml bovine serum albumin, 250 pM [^3 H]FK-506, and varying concentrations of unlabeled FK-506. Following incubation at 25° C. for 60 min, 0.35 ml was layered over a 0.8 ml column of LH-20 Sephadex (Pharmacia LKB) and washed with 0.4 ml of assay buffer. The eluates were collected and counted in a scintillation counter.

FKBP [2] = molecular target: T1, FKBP; experiment: [3H]FK506 binding to PC-12 cell homogenates; parameters: endogenous in cells; host or cells: PC-12 cells; details: for [3H]FK506 binding following NGF treatment: PC-12 cells, NGF 50 ng/ml
Description: Levels of FKBP in PC-12 cells were obtained from Scatchard analysis of [^3 H]FK506 binding curves. Cultures were scraped from the culture wells and homogenized in 10 volumes of 50 mM Tris-HCl, pH 7.4, 1 mM EDTA, 100 μg/ml phenylmethylsulfonylfluoride and centrifuged at 40,000×g for 20 min at 4° C. Protein was determined by the Coomassie blue dye binding assay using bovine serum albumin as a standard. Binding of 250 pM [^3 H]dihydro FK506 (86.5 Ci/mmol, DuPont/NEN) was assessed for samples containing 5 μg soluble protein in a final volume of 0.4 ml assay buffer containing 50 mM Tris-HCl, pH 7.4, 2 mg/ml BSA and varying concentrations of unlabeled FK506. After 60 min incubation at 25° C., 0.35 ml was layered over a 0.8 ml column of LH-20 Sephadex (Pharmacia LKB), pre-equilibrated with assay buffer. The column was further washed with 0.4 ml of assay buffer, the eluates collected, mixed with Formula 963 (DuPont/NEN) and counted in a Beckman scintillation counter. Specific binding was determined by subtracting binding obtained in the presence of 1 μM unlabeled FK506 from total [^3 H]FK506 bound.

FKBP [3] = molecular target: T1, FKBP; experiment: [3H]FK506 autoradiography on dorsal root ganglia cultures; type: binding; details: 1 μM unlabeled FK506, 1 nM [3H]FK506
Description: For [^3 H]FK506 autoradiography, dorsal root ganglia cultures were grown on chamber slides coated with collagen, 5 μg/cm^2. Cultures were fixed on the slide with ice cold 4.0% freshly depolymerized paraformaldehyde in 0.1 M sodium phosphate buffer, pH 7.4, for 1 hr, then washed two times with phosphate buffered saline. Fixed cultures were labeled with [^3 H]FK506 by pre-incubating the slides in a buffer consisting of 50 mM Hepes, 2 mg/ml bovine serum albumin, 0.02% Tween-20 pH 7.4. This was followed by incubation in the same assay buffer containing 1 nM [^3 H]FK506. Non-specific binding was determined by adding 1 μM unlabeled FK506. The slides were then rinsed 4×5 min prior to drying, and juxtaposed to tritium-sensitive film for 10 days.

T1 sequence (Q62658 whole entry): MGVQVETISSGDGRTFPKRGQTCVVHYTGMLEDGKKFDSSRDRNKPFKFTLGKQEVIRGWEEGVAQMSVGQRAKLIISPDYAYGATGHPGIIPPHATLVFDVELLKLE

CO[C@H]1C[C@@H]2CC[C@@H](C)[C@@](O)(O2)C(=O)C(=O)N2CCCC[C@H]2C(=O)O[C@H]([C@H](C)C[C@@H]2CC[C@@H](O)[C@H](OC)C2)CC(=O)[C@H](C)/C=C(\C)[C@@H](O)[C@@H](OC)C(=O)[C@H](C)C[C@H](C)/C=C/C=C/C=C/1C [rapamycin] was tested. Which “kind of effect on neuritic processes” value (PC-12 cells) did it give?
Its value is “augments the number of processes as well as their length”.

And the “combined effect of FK506 and rapamycin” value (PC-12 cells; FK506 plus rapamycin)?
Its value is “additive”.

And the neurite outgrowth (PC-12 cells; rapamycin 1 nM)?
The neurite outgrowth was “major neurite outgrowth”.

What about the “blockade of the neurotrophic actions of FK506” value (PC-12 cells; rapamycin 1 μM) of the same molecule?
The value was “fails to block the neurotrophic actions of FK506”.

What about the “blockade of FK506 effect on outgrowth” value (dorsal root ganglia; rapamycin 1 μM with FK506 1 μM) of the same molecule?
The value was “completely blocks the effects of FK506; also recorded: completely inhibits axon outgrowth in the presence of FK506”.

With [3H]CC([3H])C[C@@H]1/C=C(\C)C[C@H](C)C[C@H](OC)[C@H]2O[C@@](O)(C(=O)C(=O)N3CCCC[C@H]3C(=O)O[C@H](/C(C)=C/[C@@H]3CC[C@@H](O)[C@H](OC)C3)[C@H](C)[C@@H](O)CC1=O)[C@H](C)C[C@@H]2OC (some centres unmarked) [[^3 H]FK506] as the molecule, how does the “[3H]FK506 binding Bmax” value (FKBP [1]; adult rat, cerebral cortex) read?
Its value is 48.0 pmol/mg protein.

What about the “[3H]FK506 binding Bmax” value (FKBP [1]; adult rat, sciatic nerve) of the same molecule?
Its value is 22.1 pmol/mg protein.

And the “[3H]FK506 binding Bmax” value (FKBP [1]; adult rat, spleen)?
Its value is 8.0 pmol/mg protein.

What about the “[3H]FK506 binding Bmax” value (FKBP [1]; adult rat, thymus) of the same molecule?
The value was 9.5 pmol/mg protein.

And the “[3H]FK506 binding Bmax” value (FKBP [1]; neonatal rat, forebrain)?
The value was 25.5 pmol/mg protein.

And the “[3H]FK506 binding Bmax” value (FKBP [1]; neonatal rat, growth cones)?
The value was 10.2 pmol/mg protein.

With nerve growth factor [NGF] as the molecule, how does the “concentration for maximal augmentation of neurite outgrowth” value (PC-12 cells; NGF alone) read?
The value was 50 to 100 ng/mL.

And the “NGF concentration for half maximal outgrowth” value (PC-12 cells; in the absence of FK506)?
The value was 5 ng/mL.

And the neurite/axon outgrowth (dorsal root ganglia; NGF 100 ng/ml)?
Its neurite/axon outgrowth is “markedly increases the number and length of ganglia processes; also recorded: abundant axon outgrowth”.

And the “time at which growth begins to plateau” value (dorsal root ganglia)?
Its value is 5 to 6 days.

What about the “time by which some outgrowth is evident” value (dorsal root ganglia) of the same molecule?
Its value is no more than 1 days.

And the “[3H]FK506 binding following NGF treatment” value (FKBP [2])?
Its value is “increases markedly”.

What about the “[3H]FK506 binding following NGF treatment” value (FKBP [2]; by 20 hr) of the same molecule?
Its value is “triples”.

C=CC[C@@H]1/C=C(\C)C[C@H](C)C[C@H](OC)[C@H]2O[C@@](O)(C(=O)C(=O)N3CCCC[C@H]3C(=O)O[C@H](/C(C)=C/[C@@H]3CC[C@@H](O)[C@H](OC)C3)[C@H](C)[C@@H](O)CC1=O)[C@H](C)C[C@@H]2OC [FK506] was tested. Which “kind of effect on neuritic processes” value (PC-12 cells) did it give?
Its value is “primarily increases neurite length”.

And the “reduction of the NGF concentration needed to elicit maximal outgrowth” value (PC-12 cells; FK506 100 nM)?
Its value is 20-50 fold.

And the “effect on NGF-stimulated neurite outgrowth” value (PC-12 cells; FK506 100 nM, 48 hr)?
The value was “markedly augments the effect of NGF”.

What about the “additional neurite outgrowth at maximal NGF” value (PC-12 cells; FK506 100 nM, NGF 10-100 ng/ml) of the same molecule?
Its value is “fails to produce additional neurite outgrowth”.

What about the “neurite outgrowth in the absence of NGF” value (PC-12 cells; no NGF) of the same molecule?
Its value is “fails to elicit neurite outgrowth; also recorded: fails to stimulate neurite outgrowth”.

And the EC50 (PC-12 cells; with NGF 1 ng/ml, 48 hr, read-out: half maximal effects on neurite outgrowth)?
Its EC50 is roughly 0.1 nM.

And the “FK506 concentration eliciting the same maximal outgrowth as 50 ng/ml NGF” value (PC-12 cells; with submaximal NGF 1 ng/ml, 48 hr)?
The value was 1 nM.

And the “neurite outgrowth compared with no added growth factor” value (dorsal root ganglia; FK506 1 pM)?
The value was “greater than in its absence”.

What about the neurite/axon outgrowth (dorsal root ganglia; FK506 1 μM alone) of the same molecule?
Its neurite/axon outgrowth is “produces a similar neurotrophic effect; also recorded: abundant axon outgrowth”.

What about the neurite outgrowth (dorsal root ganglia; FK506 0.1 and 10 nM) of the same molecule?
Its neurite outgrowth is “Progressively greater outgrowth”.

And the “concentration required for maximal outgrowth” value (dorsal root ganglia; FK506 alone)?
Its value is 1 µM.

And the “lowest concentration producing a noticeable increase in growth” value (dorsal root ganglia; FK506 alone)?
Its value is 1 nM.

And the “lowest concentration producing detectable augmentation of outgrowth” value (dorsal root ganglia; FK506 alone)?
The value was 1 pM.

And the “time at which growth begins to plateau” value (dorsal root ganglia)?
Its value is 5 to 6 days.

And the “time by which some outgrowth is evident” value (dorsal root ganglia)?
Its value is no more than 1 days.

And the “displacement of [3H]FK506 autoradiographic grains” value (FKBP [3])?
Its value is “autoradiographic grains are abolished”.

And the IC50 (FKBP [2]; untreated PC-12 cell homogenates, 250 pM radioligand, read-out: Fifty percent inhibition of [3H]FK506 binding)?
The IC50 was 1 to 2 nM.
